The source of these data is patent US5273982A, “Acetic acid derivatives” (Hoffmann-La Roche Inc., priority 1990, dated 1993).

pIC50: −log10 of the molar value.

In this experiment the target is T1, fibrinogen receptor, glycoprotein IIb/IIIa (Homo sapiens, UniProt P05106+P08514).
T1 construct: obtained from Triton X-100 extracts of human blood platelets; from tissue; host or cells: human blood platelets (Triton X-100 extract)
T1 sequence (P08514 32-887 limits assumed): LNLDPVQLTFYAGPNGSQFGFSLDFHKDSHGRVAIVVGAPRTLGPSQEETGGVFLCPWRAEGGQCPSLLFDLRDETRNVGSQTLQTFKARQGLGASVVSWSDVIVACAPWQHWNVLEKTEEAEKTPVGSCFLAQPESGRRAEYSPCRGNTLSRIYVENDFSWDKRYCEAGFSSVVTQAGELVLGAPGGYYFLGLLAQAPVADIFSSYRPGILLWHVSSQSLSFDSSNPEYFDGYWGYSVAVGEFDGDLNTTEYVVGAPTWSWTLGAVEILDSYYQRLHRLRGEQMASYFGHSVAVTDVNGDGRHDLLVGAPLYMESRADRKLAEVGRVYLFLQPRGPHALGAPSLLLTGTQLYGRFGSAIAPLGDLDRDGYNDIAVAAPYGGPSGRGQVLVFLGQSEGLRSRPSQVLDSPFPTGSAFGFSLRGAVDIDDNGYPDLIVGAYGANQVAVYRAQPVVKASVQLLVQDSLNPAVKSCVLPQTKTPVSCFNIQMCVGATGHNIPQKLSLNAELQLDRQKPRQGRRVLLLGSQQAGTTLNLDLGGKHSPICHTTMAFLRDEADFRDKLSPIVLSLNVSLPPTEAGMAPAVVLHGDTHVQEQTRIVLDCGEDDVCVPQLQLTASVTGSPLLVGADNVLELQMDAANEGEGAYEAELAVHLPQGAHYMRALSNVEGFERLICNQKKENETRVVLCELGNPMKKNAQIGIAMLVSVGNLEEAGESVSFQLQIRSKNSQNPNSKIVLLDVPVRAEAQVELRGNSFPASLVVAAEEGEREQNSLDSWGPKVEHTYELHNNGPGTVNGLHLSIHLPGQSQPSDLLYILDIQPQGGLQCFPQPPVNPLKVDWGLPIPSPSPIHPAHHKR
T1 sequence (P08514 891-1039 partner limits assumed): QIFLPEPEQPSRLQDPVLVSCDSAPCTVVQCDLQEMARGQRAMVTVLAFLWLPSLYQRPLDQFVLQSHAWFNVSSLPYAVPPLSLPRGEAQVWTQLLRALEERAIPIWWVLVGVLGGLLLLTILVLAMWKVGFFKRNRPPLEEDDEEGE
T1 sequence (P05106 27-788): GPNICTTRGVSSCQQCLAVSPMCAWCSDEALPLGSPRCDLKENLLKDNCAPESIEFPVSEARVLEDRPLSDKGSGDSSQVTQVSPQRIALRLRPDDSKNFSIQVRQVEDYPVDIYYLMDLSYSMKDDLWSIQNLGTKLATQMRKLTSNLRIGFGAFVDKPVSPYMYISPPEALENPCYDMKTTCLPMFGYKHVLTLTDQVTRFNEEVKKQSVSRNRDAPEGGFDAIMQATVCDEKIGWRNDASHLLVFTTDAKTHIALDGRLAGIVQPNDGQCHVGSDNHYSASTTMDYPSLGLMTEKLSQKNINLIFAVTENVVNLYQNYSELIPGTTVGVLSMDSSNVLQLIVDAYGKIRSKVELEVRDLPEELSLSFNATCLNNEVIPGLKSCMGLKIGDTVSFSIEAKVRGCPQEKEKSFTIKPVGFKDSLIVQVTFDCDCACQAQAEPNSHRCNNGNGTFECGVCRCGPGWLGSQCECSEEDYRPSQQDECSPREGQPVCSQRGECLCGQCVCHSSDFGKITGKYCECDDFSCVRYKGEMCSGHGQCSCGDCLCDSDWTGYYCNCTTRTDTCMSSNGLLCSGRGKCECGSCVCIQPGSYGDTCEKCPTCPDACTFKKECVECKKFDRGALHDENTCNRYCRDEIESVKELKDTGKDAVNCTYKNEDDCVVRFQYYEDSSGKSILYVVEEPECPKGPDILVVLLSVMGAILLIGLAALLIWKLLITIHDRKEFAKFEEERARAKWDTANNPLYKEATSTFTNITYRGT
The experiment in a line: Inhibition of fibrinogen binding to immobilised fibrinogen receptor glycoprotein IIb/IIIa (ELISA). To be noted: glycoprotein IIb/IIIa from human blood platelets, bound to microtiter plates, read-out: IC50 (concentration required to inhibit the binding of fibrinogen to the immobilised receptor by 50%). From the text:
The inhibition of fibrinogen […] on the fibrinogen receptor, glycoprotein IIb/IIIa, can be detected as follows:
Glycoprotein IIb/IIIa is obtained from Triton X-100 extracts of human blood platelets and purified by lectin affinity chromatography (Analytical Biochemistry 151, 1985, 169-177) and chromatography on an Arg-Gly-Asp-Ser affinity column (Science 231, 1986, 1559-62). The receptor protein thus obtained is bound to microtiter plates. The specific binding of fibrinogen to the immobilized receptor is determined with the aid of an ELISA system ("enzyme-linked immunosorbent assay"). The IC50 values below correspond to the concentration of the test substance which is required in order to inhibit the binding of fibrinogen to the immobilised receptor by 50%: […]
Background: In an ELISA, binding on a coated surface is turned into a signal by an enzyme label.
For `CC(C)COC(=O)[C@H](CC(=O)O)NC(=O)CCCCNC(=O)c1ccc(C(=N)N)cc1` [Example 25, isobutyl N-[5-(p-amidinobenzamido)valeryl]-L-α-aspartate], the pIC50 was 8.17. Under `CCOC(=O)[C@H](CO)NC(=O)[C@H](CC(=O)O)NC(=O)CCNC(=O)c1ccc(C(=N)N)cc1` [Example 28, N-[N-[N-(p-amidinobenzoyl)-β-alanyl]-L-α-aspartyl]-L-serine ethyl ester] stands 8.30; under `CC(C)[C@H](NC(=O)[C@H](CC(=O)O)NC(=O)CCNC(=O)c1ccc(C(=N)N)cc1)C(=O)O` [Example 38, N-[N-[N-(p-amidinobenzoyl)-β-alanyl]-L-α-aspartyl]-L-valine], 8.44.

In the case of `N=C(N)c1ccc(C(=O)NCCCC(=O)NCCC(=O)O)cc1` [Example 8, N-[4-(p-amidinobenzamido)butyryl]-β-alanine], the pIC50 was 7.00. Under `N=C(N)c1ccc(C(=O)N2CCCC(C(=O)NCCC(=O)O)C2)cc1` (racemic) [Example 7, rac-N-[[1-(p-amidinobenzoyl)-3-piperi-dinyl]carbonyl]-β-alanine] stands 7.57. Under `N=C(N)c1ccc(CC(=O)NCCC(=O)N[C@@H](CC(=O)O)C(=O)N[C@@H](Cc2ccccc2)C(=O)O)cc1` [Example 3, N-[N-[N-(p-amidinophenylacetyl)-β-alanyl]-L-α-aspartyl]-3-phenyl-L-alanine] stands 7.35; under `N=C(N)c1ccc(CCNC(=O)CC(=O)N[C@@H](CC(=O)O)C(=O)N[C@@H](Cc2ccccc2)C(=O)O)cc1` [Example 5, N-[N-[(p-amidinophenethylcarbamoyl)acetyl]-L-α-aspartyl]-3-phenyl-L-alanine], 8.00; under `N=C(N)c1ccc(C(=O)NCCCCC(=O)N[C@@H](CC(=O)O)C(=O)N[C@@H](Cc2ccccc2)C(=O)O)cc1` [Example 11, N-[N-[5-(p-amidinobenzamido)valeryl]-L-α-aspartyl]-3-phenyl-L-alanine], 8.60.

`N=C(N)c1ccc(C(=O)NCCC(=O)N[C@@H](CC(=O)O)C(=O)N[C@@H](Cc2ccc(O)cc2)C(=O)O)cc1` [Example 39]: the pIC50 was 8.92. The value for `N=C(N)N1CCC(C(=O)NCCC(=O)N[C@@H](CC(=O)O)C(=O)N[C@@H](Cc2ccccc2)C(=O)O)CC1` [Example 2, N-[N-[N-(1-amidino-4-piperidinylcarbonyl)-β-alanyl]-L-α-aspartyl]-3-phenyl-L-alanine] was 6.89; that for `N=C(N)c1ccc(C(=O)NC(CC(=O)NCCC(=O)O)c2ccccc2)cc1` (racemic) [Example 10, N-[(DL)-N-(p-amidinobenzoyl)-3-phenyl-β-alanyl]-β-alanine] was 7.66. In the case of `N=C(N)c1ccc(C(=O)NCCC(=O)NCCC(=O)O)cc1` [Example 9, N-[N-(p-amidino-benzoyl)-β-alanyl]-β-alanine], the pIC50 was 8.30.

On to `N=C(N)c1ccc(C(=O)N2CC[C@@H](C(=O)N[C@@H](CC(=O)O)C(=O)N[C@@H](Cc3ccccc3)C(=O)O)C2)cc1` [Example 31, N-[N-[[(R)-1-(p-amidinobenzoyl)-3-pyrrolidinyl]carbonyl]-L-α-aspartyl]-3-phenyl-L-alanine], for which the pIC50 was 7.89. Under `CC(C)[C@H](NC(=O)[C@H](CC(=O)O)NC(=O)CCCNC(=O)c1ccc(C(=N)N)cc1)C(=O)O` [Example 6, N-[N-[4-(p-amidinobenzamido)butyryl]-L-α-aspartyl]-L-valine] stands 8.00; under `N=C(N)c1ccc(C(=O)NCCC(=O)N[C@@H](CC(=O)O)C(=O)N[C@@H](Cc2ccccc2)C(=O)O)cc1` [Example 1, N-[N-[N-(p-amidinobenzoyl)-β-alanyl]-L-α-aspartyl]-3-phenyl-L-alanine], 9.52; under `N=C(N)c1ccc(NC(=O)CCCC(=O)N[C@@H](CC(=O)O)C(=O)N[C@@H](Cc2ccccc2)C(=O)O)cc1` [Example 4, N-[N-[4-(p-amidinophenylcarbamoyl)butyryl]-L-α-aspartyl]-3-phenyl-L-alanine], 7.46.

As for `CC(C)C[C@H](NC(=O)[C@H](CC(=O)O)NC(=O)CCNC(=O)c1ccc(C(=N)N)cc1)C(=O)OC(C)C` [Example 18, N-[N-[N-(p-amidino-benzoyl)-β-alanyl]-L-α-aspartyl]-L-leucine isopropyl ester], the pIC50 is 8.00.
